One assay addresses T1, rat TRPV1 (Rattus norvegicus, UniProt O35433).
T1 construct: expressed in transfected cells; host or cells: HEK293
Nature of the assay: Block of capsaicin-induced Ca2+ influx, rat assay (rTRPV1/HEK293, FLIPR). The note with it: HEK293 cells transfected with rat TRPV1; capsaicin challenge; mean; > value = solubility limit in assay medium; read-out: Rat IC50. In kind it is cell-based. The procedure: (§1) HEK293 cells were transfected with human TRPV1 cloned in pcDNA3.1zeo(+) using the Effectene non-liposomal lipid based transfection kit (Qiagen) (hTRPV1/HEK293). hTRPV1/HEK293 cells were routinely grown as monolayers under selection in zeocin (200 μg/mL; Invitrogen) in Dulbecco's Modified Eagle Medium (DMEM, Gibco BRL) supplemented with 10% fetal bovine serum, and penicillin/streptomycin (50 units/mL) in 5% CO2 at 37° C. Cells were passaged frequently, every 3-5 days, to avoid overgrowth, depletion of essential medium components, or acidic medium exposure. Cells were passaged using a brief wash in 0.05% trypsin with 1 mM EDTA, followed by dissociation in divalent-free phosphate-buffered saline (Hyclone #SH30028.02). […] The assay buffer was composed of 130 mM NaCl, 2 mM KCl, 2 mM MgCl2, 10 mM HEPES, 5 mM glucose, and either 2 mM or 20 μM CaCl2. On the day of the experiment, the culture medium was replaced with 2 mM calcium assay buffer using an automated plate washer (ELx405; Biotek, VT). […] After loading the cells, the dye solution was replaced with 50 μL/well of 20 μM calcium assay buffer using the ELx405 plate washer. Test compounds (50 μL/well) were added to the plate and incubated for 30 min. Intracellular Ca^2+ levels were subsequently assayed using a Fluorometric Imaging Plate Reader (FLIPR™ instrument, Molecular Devices, CA) to simultaneously monitor Fluo-3 fluorescence in all wells (λexcitation=488 nm, λemission=540 nm) during challenge with agonist (capsaicin). The IC50 values were determined. […] The contents of the wells were mixed 3 times (40 μL mix volume) immediately after the additions were made. Concentration-dependence of block was determined by exposing each well of cells in duplicate rows of a 96-well plate to a serial dilution of test compound. The concentration series usually started at 10 μM with a three-fold serial decrement in concentration. The magnitude of the capsaicin response was determined by measuring the change in fluo3 fluorescence before and 100 seconds after the addition of the agonist. Data were analyzed using a non-linear regression program (Origin; OriginLab, MA).
This assay was performed similarly to the human assay described above, but using HEK293 cells transfected with rat TRPV1 (rTRPV1/HEK293).
(§2) IC50 values shown are the average (mean) of the results obtained. […] Compounds were tested as in the free base, trifluoroacetic acid salt, or hydrochloride salt form.

Another assay deals with T2, human TRPV1 (Homo sapiens, UniProt Q8NER1).
T2 construct: expressed in transfected cells; host or cells: HEK293
Nature of the assay: Block of capsaicin-induced Ca2+ influx, human assay (hTRPV1/HEK293, FLIPR). Type of assay: cell-based. As to conditions: HEK293 cells transfected with human TRPV1; 150 nM capsaicin challenge; mean; > value = solubility limit in assay medium. How it is done:
as §1, §2

The structures appear in SMILES notation.

Broadly, the IC50 is the concentration that gives 50% inhibition.

T1 sequence (O35433 whole entry): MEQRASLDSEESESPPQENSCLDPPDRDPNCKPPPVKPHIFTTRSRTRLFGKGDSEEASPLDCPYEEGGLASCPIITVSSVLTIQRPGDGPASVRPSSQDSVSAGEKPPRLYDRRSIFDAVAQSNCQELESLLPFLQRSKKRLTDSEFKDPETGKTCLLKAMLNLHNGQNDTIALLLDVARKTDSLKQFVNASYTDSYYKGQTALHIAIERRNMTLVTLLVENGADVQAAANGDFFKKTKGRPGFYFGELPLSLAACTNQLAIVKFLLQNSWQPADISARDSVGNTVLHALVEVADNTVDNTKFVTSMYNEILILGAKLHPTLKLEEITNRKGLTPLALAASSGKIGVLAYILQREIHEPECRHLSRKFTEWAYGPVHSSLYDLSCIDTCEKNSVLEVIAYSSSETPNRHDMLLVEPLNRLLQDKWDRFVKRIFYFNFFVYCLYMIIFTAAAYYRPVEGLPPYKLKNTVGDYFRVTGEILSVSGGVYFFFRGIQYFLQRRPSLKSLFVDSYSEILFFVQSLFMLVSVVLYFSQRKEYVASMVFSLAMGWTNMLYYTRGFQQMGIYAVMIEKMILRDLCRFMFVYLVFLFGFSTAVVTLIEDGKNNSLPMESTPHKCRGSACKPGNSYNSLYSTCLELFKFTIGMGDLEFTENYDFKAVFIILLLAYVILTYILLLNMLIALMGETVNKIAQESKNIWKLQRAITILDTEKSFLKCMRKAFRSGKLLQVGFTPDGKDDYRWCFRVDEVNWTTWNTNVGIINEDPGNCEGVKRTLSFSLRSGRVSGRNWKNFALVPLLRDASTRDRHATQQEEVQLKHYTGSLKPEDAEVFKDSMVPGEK
T2 sequence (Q8NER1 whole entry): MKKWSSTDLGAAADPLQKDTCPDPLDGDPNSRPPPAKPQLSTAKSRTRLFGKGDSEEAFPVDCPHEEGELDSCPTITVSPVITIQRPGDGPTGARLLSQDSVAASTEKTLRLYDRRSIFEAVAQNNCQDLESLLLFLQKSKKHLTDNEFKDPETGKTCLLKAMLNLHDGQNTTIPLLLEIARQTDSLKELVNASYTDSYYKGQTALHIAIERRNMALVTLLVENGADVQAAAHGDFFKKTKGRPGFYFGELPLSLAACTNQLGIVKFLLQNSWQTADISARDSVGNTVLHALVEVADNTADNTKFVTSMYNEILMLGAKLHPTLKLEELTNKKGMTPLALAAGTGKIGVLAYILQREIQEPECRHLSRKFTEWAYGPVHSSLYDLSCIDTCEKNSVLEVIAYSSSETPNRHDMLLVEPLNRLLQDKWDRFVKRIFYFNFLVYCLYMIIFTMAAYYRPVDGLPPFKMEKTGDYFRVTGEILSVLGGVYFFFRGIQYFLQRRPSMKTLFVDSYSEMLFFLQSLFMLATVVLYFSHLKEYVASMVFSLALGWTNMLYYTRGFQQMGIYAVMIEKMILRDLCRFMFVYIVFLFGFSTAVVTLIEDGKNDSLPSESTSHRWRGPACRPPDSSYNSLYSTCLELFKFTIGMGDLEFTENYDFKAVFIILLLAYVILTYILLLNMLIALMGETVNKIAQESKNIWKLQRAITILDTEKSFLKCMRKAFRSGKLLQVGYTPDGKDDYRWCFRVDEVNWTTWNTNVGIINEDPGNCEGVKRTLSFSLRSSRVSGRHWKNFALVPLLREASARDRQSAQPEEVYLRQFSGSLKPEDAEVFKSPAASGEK

Regarding `FC(F)(F)c1ccc(Nc2ncnc3sc(Cc4c(Cl)cccc4Cl)nc23)cn1` [Example 8, [2-(2,6-Dichloro-benzyl)-thiazolo[5,4-d]pyrimidin-7-yl]-(6-trifluoromethyl-pyridin-3-yl)-amine], the IC50 on rat TRPV1 is 55 nM; on human TRPV1, 30 nM.
For the compound `FC(F)(F)c1ccc(Nc2ncnc3sc(Cc4c(Cl)cccc4Cl)nc23)cc1Cl` [Example 9, (3-Chloro-4-trifluoromethyl-phenyl)-[2-(2,6-dichloro-benzyl)-thiazolo[5,4-d]pyrimidin-7-yl]-amine], the IC50 at rat TRPV1 came to 74 nM; against human TRPV1, 40 nM.
As to `CS(=O)(=O)c1ccc(Nc2ncnc3sc(Cc4c(Cl)cccc4Cl)nc23)cc1` [Example 13, [2-(2,6-Dichloro-benzyl)-thiazolo[5,4-d]pyrimidin-7-yl]-(4-methanesulfonyl-phenyl)-amine], the IC50 on rat TRPV1 was found to be 57 nM; against human TRPV1, 190 nM.
`O=S(=O)(c1ccc(Nc2ncnc3sc(Cc4c(Cl)cccc4Cl)nc23)cc1)C(F)(F)F` [Example 14]: the IC50 on rat TRPV1 was 68 nM; on human TRPV1 it was 34 nM.
For `O=S(=O)(c1ccc(Nc2ncnc3sc(Cc4c(Cl)cccc4Cl)nc23)cc1)N1CCOCC1` [Example 15, [2-(2,6-Dichloro-benzyl)-thiazolo[5,4-d]pyrimidin-7-yl]-[4-(morpholine-4-sulfonyl)-phenyl]-amine], in that order: 54 nM and 33 nM.
For `CN1CCN(S(=O)(=O)c2ccc(Nc3ncnc4sc(Cc5c(Cl)cccc5Cl)nc34)cc2)CC1` [Example 16, [2-(2,6-Dichloro-benzyl)-thiazolo[5,4-d]pyrimidin-7-yl]-[4-(4-methyl-piperazine-1-sulfonyl)-phenyl]-amine], in that order: 1090 nM and 416 nM.
Consider `Cc1ccccc1Cc1nc2c(Nc3ccc(C(F)(F)F)cc3)ncnc2s1` [Example 17, 2-(2-Methylbenzyl)-N-[4-(trifluoromethyl)phenyl][1,3]thiazolo[5,4-d]pyrimidin-7-amine], for which the concentration for half-maximal inhibition (IC50) turned out to be 146 nM at rat TRPV1 and 147 nM on human TRPV1.
For `Cc1ccccc1Cc1nc2c(Nc3ccc(C(F)(F)F)nc3)ncnc2s1` [Example 18, 2-(2-Methylbenzyl)-N-[6-(trifluoromethyl)pyridin-3-yl][1,3]thiazolo[5,4-d]pyrimidin-7-amine], in that order: 154 nM and 85 nM.
With `Cc1ccccc1Cc1nc2c(Nc3ccc(S(C)(=O)=O)cc3)ncnc2s1` [Example 19, 2-(2-Methylbenzyl)-N-[4-(methylsulfonyl)phenyl][1,3]thiazolo[5,4-d]pyrimidin-7-amine], the IC50 on rat TRPV1 turned out to be 247 nM; against human TRPV1, 471 nM.
On to `FC(F)(F)c1ccc(Nc2ncnc3sc(Cc4ccccc4Cl)nc23)cc1` [Example 20, 2-(2-Chlorobenzyl)-N-[4-(trifluoromethyl)phenyl][1,3]thiazolo[5,4-d]pyrimidin-7-amine], for which the IC50 at rat TRPV1 is 32 nM; at human TRPV1, 40 nM.
With `FC(F)(F)c1ccc(Nc2ncnc3sc(Cc4ccccc4Cl)nc23)cn1` [Example 21, 2-(2-Chlorobenzyl)-N-[6-(trifluoromethyl)pyridin-3-yl][1,3]thiazolo[5,4-d]pyrimidin-7-amine], the IC50 on rat TRPV1 came to 54 nM; on human TRPV1, 79 nM.
Regarding `CS(=O)(=O)c1ccc(Nc2ncnc3sc(Cc4ccccc4Cl)nc23)cc1` [Example 22, 2-(2-Chlorobenzyl)-N-[4-(methylsulfonyl)phenyl][1,3]thiazolo[5,4-d]pyrimidin-7-amine], the figures for the IC50 on rat TRPV1 and against human TRPV1 were 33 nM and 280 nM, respectively.
As to `FC(F)(F)c1ccccc1Nc1ncnc2sc(Cc3c(Cl)cccc3Cl)nc12` [Example 23, 2-(2,6-Dichlorobenzyl)-N-[2-(trifluoromethyl)phenyl][1,3]thiazolo[5,4-d]pyrimidin-7-amine], the values for the IC50 on rat TRPV1 and on human TRPV1 were 1790 nM and more than 6670 nM, respectively.
For `FC(F)(F)c1cccc(Nc2ncnc3sc(Cc4c(Cl)cccc4Cl)nc23)c1` [Example 24, 2-(2,6-Dichlorobenzyl)-N-[3-(trifluoromethyl)phenyl][1,3]thiazolo[5,4-d]pyrimidin-7-amine], in that order: 196 nM and 840 nM.
Regarding `CC(C)(C)c1ccc(Nc2ncnc3sc(Cc4c(Cl)cccc4Cl)nc23)cc1` [Example 25, N-(4-tert-Butylphenyl)-2-(2,6-dichlorobenzyl)[1,3]thiazolo[5,4-d]pyrimidin-7-amine], the IC50 on rat TRPV1 stood at 11 nM; against human TRPV1, 54 nM.
Take `FC(F)(F)c1ccc(Nc2ncnc3sc(Cc4ccccc4)nc23)cc1` [Example 32, 2-Benzyl-N-[4-(trifluoromethyl)phenyl][1,3]thiazolo[5,4-d]pyrimidin-7-amine]: the values for the IC50 at rat TRPV1 and against human TRPV1 were 55 nM and 2920 nM, respectively.
For `FC(F)(F)c1ccc(Nc2ncnc3sc(Cc4ccccc4)nc23)cn1` [Example 33, 2-Benzyl-N-[6-(trifluoromethyl)pyridin-3-yl][1,3]thiazolo[5,4-d]pyrimidin-7-amine], in that order: 111 nM and 813 nM.
For `CS(=O)(=O)c1ccc(Nc2ncnc3sc(Cc4ccccc4)nc23)cc1` [Example 34, 2-Benzyl-N-[4-(methylsulfonyl)phenyl][1,3]thiazolo[5,4-d]pyrimidin-7-amine], in that order: 1460 nM and 3310 nM.
With `FC(F)(F)c1ccc(Nc2ncnc3sc(Cc4ccc(Cl)cc4)nc23)cc1` [Example 35, 2-(4-Chlorobenzyl)-N-[4-(trifluoromethyl)phenyl][1,3]thiazolo[5,4-d]pyrimidin-7-amine], the IC50 on rat TRPV1 came to 42 nM; on human TRPV1, 988 nM.
For `FC(F)(F)c1ccc(Nc2ncnc3sc(Cc4ccc(Cl)cc4)nc23)cn1` [Example 36, 2-(4-Chlorobenzyl)-N-[6-(trifluoromethyl)pyridin-3-yl][1,3]thiazolo[5,4-d]pyrimidin-7-amine], in that order: 80 nM and 2300 nM.
For `COc1ccc(Nc2ncnc3sc(Cc4c(Cl)cccc4Cl)nc23)cc1` [Example 37, 2-(2,6-Dichlorobenzyl)-N-(4-methoxyphenyl)[1,3]thiazolo[5,4-d]pyrimidin-7-amine], in that order: 241 nM and 328 nM.
For `Fc1ccc(Nc2ncnc3sc(Cc4c(Cl)cccc4Cl)nc23)cc1` [Example 39, 2-(2,6-Dichlorobenzyl)-N-(4-fluorophenyl)[1,3]thiazolo[5,4-d]pyrimidin-7-amine], the values for the IC50 on rat TRPV1 and against human TRPV1 were 189 nM and 225 nM, respectively.
`Clc1ccc(Nc2ncnc3sc(Cc4c(Cl)cccc4Cl)nc23)cc1` [Example 40, N-(4-Chlorophenyl)-2-(2,6-dichlorobenzyl)[1,3]thiazolo[5,4-d]pyrimidin-7-amine]: the IC50 came out at 51 nM on rat TRPV1 and 49 nM against human TRPV1.
For the compound `Clc1cccc(Cl)c1Cc1nc2c(Nc3ccc(Br)cc3)ncnc2s1` [Example 41, N-(4-Bromophenyl)-2-(2,6-dichlorobenzyl)[1,3]thiazolo[5,4-d]pyrimidin-7-amine], the IC50 at rat TRPV1 turned out to be 29 nM; on human TRPV1 it was 32 nM.
Take `CC(C)(C#N)c1ccc(Nc2ncnc3sc(Cc4c(Cl)cccc4Cl)nc23)cc1` [Example 42, 2-(4-{[2-(2,6-Dichlorobenzyl)[1,3]thiazolo[5,4-d]pyrimidin-7-yl]amino}phenyl)-2-methylpropanenitrile]: the results for the IC50 at rat TRPV1 and at human TRPV1 were 56 nM and 99 nM, respectively.
With `Clc1cccc(Cl)c1Cc1nc2c(Nc3ccccc3)ncnc2s1` [Example 43, 2-(2,6-Dichlorobenzyl)-N-phenyl[1,3]thiazolo[5,4-d]pyrimidin-7-amine], the IC50 on rat TRPV1 worked out at 167 nM; against human TRPV1, 269 nM.
For `FC(F)(F)Oc1ccc(Nc2ncnc3sc(Cc4c(Cl)cccc4Cl)nc23)cc1` [Example 44, 2-(2,6-Dichlorobenzyl)-N-[4-(trifluoromethoxy)phenyl][1,3]thiazolo[5,4-d]pyrimidin-7-amine], in that order: 44 nM and 193 nM.
Regarding `CS(=O)(=O)c1ccc(Nc2ncnc3sc(Cc4c(Cl)cccc4Cl)nc23)cc1F` [Example 45, 2-(2,6-Dichlorobenzyl)-N-[3-fluoro-4-(methylsulfonyl)phenyl][1,3]thiazolo[5,4-d]pyrimidin-7-amine], the figures for the IC50 on rat TRPV1 and on human TRPV1 were 183 nM and 274 nM, respectively.

The values are drawn from US9440978B2, “Imidazolo-, oxazolo-, and thiazolopyrimidine modulators of TRPV1” (Janssen Pharmaceutica NV, priority 2007, dated 2016).
